Where two headings read alike, the source gives them in different places.
Key:
Type in all cases: cell-based
[1] = biological target: T1, vanilloid receptor 1 (VR1/TRPV1) of the rat species (Rattus norvegicus, UniProt O35433); test: FLIPR Ca2+ influx assay on rat dorsal root ganglia cells (pharmacological method I)
T1 construct: The spinal column is removed from decapitated rats; from tissue; host or cells: primary cells dissociated from rat dorsal root ganglia
Description: I. Functional Investigation of the Vanilloid Receptor 1 (VR1/TRPV1 Receptor)
The agonistic or antagonistic action of the substances to be investigated on the vanilloid receptor 1 (VR1/TRPV1) of the rat species may be determined by the following assay. According to this assay, the influx of Ca^2+ through the receptor channel is quantified with the assistance of a Ca^2+-sensitive dye (type Fluo-4, Molecular Probes Europe BV, Leiden, Netherlands) in a Fluorescent Imaging Plate Reader (FLIPR, Molecular Devices, Sunnyvale, USA).
The spinal column is removed from decapitated rats and is placed directly in cold, i.e. located in an ice bath, HBSS buffer (Hank's buffered saline solution, Gibco Invitrogen GmbH, Karlsruhe, Germany) combined with 1 vol. % (percent by volume) of an AA solution (antibiotic/antimycotic solution, PAA, Pasching, Austria). The spinal column is cut open longitudinally and removed together with fasciae from the spinal canal. The dorsal root ganglia (DRGs) are then removed and in turn stored in cold HBSS buffer combined with 1 vol. % of an AA solution. The DRGs, from which all traces of blood and spinal nerves have been removed, are in each case transferred into 500 μL of cold collagenase type 2 (PAA, Pasching, Austria) and incubated for 35 minutes at 37° C. […] Once incubation is complete, the enzyme solution is carefully removed by pipette and the DRGs, which are left behind, are in each case combined with 500 μL of complete medium.
The DRGs are in each case repeatedly suspended, drawn by means of a syringe through […], no. 12 and no. 16 cannulas and transferred into 50 mL Falcon microtubes and each tube is made up to 15 mL with complete medium. The contents of each Falcon microtube are in each case filtered through a 70 μm Falcon filter insert and centrifuged for 10 minutes at 1200 revolutions and room temperature. The resultant pellet is in each case resuspended in 250 μL of complete medium and the cell count determined.
The number of cells in the suspension is adjusted to 3×10^5 per mL and a 150 μL portion of this suspension is in each case placed in a well of the cell culture plate which has been coated as described above.
The cells are then loaded with 2 μM Fluo-4 and 0.01 vol. % Pluronic F127 (Molecular Probes Europe BV, Leiden, Netherlands) in HBSS buffer (Hank's buffered saline solution, Gibco Invitrogen GmbH, Karlsruhe, Germany) for 30 min at 37° C., washed 3× with HBSS buffer and, after a further 15 minutes' incubation at room temperature, used for Ca^2+ measurement in the FLIPR assay. […] Quantification proceeds by measuring the highest fluorescence intensity (FC, fluorescence counts) over time.
The FLIPR protocol comprises 2 additions of substance. The compounds to be tested (10 μM) are firstly pipetted onto the cells and Ca^2+ influx is compared with the control (capsaicin 10 μM). This provides the percentage activation relative to the Ca^2+ signal after addition of 10 μM of capsaicin (CP). After 5 minutes' incubation, 100 nM of capsaicin are added and the influx of Ca^2+ is again determined.
Desensitising agonists and antagonists result in suppression of Ca^2+ influx. The percentage inhibition in comparison with the maximum achievable inhibition with 10 μM capsaicin is calculated.
Triplicate determinations (n═3) are performed and these are repeated in at least 3 independent experiments […].

vanilloid receptor (VR1) = biological target: T2, vanilloid receptor (VR1) (Homo sapiens, UniProt Q8NER1); test: FLIPR Ca2+ influx assay on CHO K1 cells transfected with the VR1 gene (pharmacological method II)
T2 construct: expressed in transfected cells; host or cells: CHO K1 cells (ECACC), stably transfected

VR1/TRPV1 receptor = VR1/TRPV1 receptor (Homo sapiens, UniProt Q8NER1); test: IC50 (human) after pH stimulus; conditions: for IC50: table 4; for inhibition at 1 µM / inhibition in percent, IC50 (human) after pH stimulus: ne = no effect, @ 1 μM
[2] = Table 2, displacement of capsaicin (100 nM), Cheng-Prusoff, read-out: Ki (rat)
[3] = table 4, capsaicin, read-out: Ki (rat) Cap.
[4] = table 4, capsaicin, read-out: Ki (human) Cap.
[5] = read-out: inhibition in percent, IC50 (human) after pH stimulus

Sequence of VR1/TRPV1 receptor (Q8NER1 whole entry): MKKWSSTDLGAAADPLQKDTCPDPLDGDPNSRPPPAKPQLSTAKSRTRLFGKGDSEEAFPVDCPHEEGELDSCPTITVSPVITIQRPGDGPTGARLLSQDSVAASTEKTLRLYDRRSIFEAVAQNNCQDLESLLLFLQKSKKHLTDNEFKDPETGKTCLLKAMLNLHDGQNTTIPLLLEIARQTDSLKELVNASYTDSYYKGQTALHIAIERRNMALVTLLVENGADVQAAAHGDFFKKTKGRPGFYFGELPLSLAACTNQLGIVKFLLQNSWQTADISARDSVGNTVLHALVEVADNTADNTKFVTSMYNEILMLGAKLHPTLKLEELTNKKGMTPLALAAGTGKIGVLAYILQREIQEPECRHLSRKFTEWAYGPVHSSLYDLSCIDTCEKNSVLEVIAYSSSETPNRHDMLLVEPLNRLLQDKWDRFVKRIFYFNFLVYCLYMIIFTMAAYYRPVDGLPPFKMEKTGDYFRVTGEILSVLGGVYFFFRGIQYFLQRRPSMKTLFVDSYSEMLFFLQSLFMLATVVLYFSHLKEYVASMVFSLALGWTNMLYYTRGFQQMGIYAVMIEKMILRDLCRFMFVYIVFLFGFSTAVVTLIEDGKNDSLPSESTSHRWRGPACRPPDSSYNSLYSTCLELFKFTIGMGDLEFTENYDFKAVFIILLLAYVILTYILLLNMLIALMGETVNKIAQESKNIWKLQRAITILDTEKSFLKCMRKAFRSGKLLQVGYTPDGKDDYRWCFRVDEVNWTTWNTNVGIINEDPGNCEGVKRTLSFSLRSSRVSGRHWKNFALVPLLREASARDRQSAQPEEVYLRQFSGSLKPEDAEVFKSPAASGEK
T2 sequence (Q8NER1 whole entry): as above
T1 sequence (O35433 whole entry): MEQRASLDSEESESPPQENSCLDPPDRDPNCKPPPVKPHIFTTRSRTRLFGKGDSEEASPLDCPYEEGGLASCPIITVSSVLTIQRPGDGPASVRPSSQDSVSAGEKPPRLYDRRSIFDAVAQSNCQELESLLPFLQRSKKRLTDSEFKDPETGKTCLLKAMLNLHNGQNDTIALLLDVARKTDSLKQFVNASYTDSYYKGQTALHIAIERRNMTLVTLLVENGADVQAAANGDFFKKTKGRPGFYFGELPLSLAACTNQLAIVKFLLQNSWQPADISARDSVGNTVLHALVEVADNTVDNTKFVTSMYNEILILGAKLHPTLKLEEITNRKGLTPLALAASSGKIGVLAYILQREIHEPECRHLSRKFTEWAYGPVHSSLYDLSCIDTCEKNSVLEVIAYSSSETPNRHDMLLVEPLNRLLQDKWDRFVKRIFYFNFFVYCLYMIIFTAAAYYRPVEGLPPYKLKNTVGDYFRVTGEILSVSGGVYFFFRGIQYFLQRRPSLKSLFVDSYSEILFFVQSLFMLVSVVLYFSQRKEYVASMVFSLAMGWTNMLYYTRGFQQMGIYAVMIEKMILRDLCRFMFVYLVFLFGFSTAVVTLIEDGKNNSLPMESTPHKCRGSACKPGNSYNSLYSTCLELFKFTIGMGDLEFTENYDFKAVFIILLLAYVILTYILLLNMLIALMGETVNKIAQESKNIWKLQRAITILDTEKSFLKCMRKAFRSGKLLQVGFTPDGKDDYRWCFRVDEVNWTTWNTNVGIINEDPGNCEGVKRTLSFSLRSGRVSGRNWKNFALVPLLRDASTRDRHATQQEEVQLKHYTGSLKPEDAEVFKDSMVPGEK

Row | SMILES | IC50 (VR1/TRPV1 receptor) [nM] | Ki (vanilloid receptor (VR1); [4]) [nM] | further results
1 | CC(C(=O)NCc1ccc(C(F)(F)F)cc1N1CCCCC1)c1ccc(NS(C)(=O)=O)c(Cl)c1 (stereo not shown) [Example 66, 2-(3-chloro-4-(methylsulfonamido)phenyl)-N-(2-(piperidin-1-yl)-4-(trifluoromethyl)benzyl)propanamide] |  |  | Ki [1, 2]: 3.7 nM; Ki (vanilloid receptor (VR1); Table 2, displacement of capsaicin (100 nM), Cheng-Prusoff, read-out: Ki (human)): 2.9 nM
2 | CC1CCN(c2nc(-c3ccc(F)cc3)ccc2CNC(=O)C(C)c2ccc(NS(C)(=O)=O)c(F)c2)CC1 (stereo not shown) [Example 184, 2-(3-fluoro-4-methylsulfonamido-phenyl)-N-[6′-(4-fluoro-phenyl)-4-methyl-3,4,5,6-tetrahydro-2H-[1,2′]bipyridinyl-3′-ylmethyl]-propionamide] |  |  | Ki [1, 3]: 77 nM
3 | CCCCOc1nc(C(F)(F)F)ccc1CNC(=O)C(C)c1ccc(NS(C)(=O)=O)c(F)c1 (stereo not shown) [Example 19, N-((2-butoxy-6-(trifluoromethyl)pyridin-3-yl)methyl)-2-(3-fluoro-4-(methylsulfonamido)phenyl)propanamide] |  |  | Ki [1, 2]: 1 nM
4 | CCC(=O)N(c1ccccc1)C1CCN(c2nc(C(F)(F)F)ccc2CNC(=O)C(C)c2ccc(NS(C)(=O)=O)c(F)c2)CC1 (stereo not shown) [Example 307, 2-(3-fluoro-4-methylsulfonamido-phenyl)-N-[4-(phenyl-propionyl-amino)-6′-trifluoromethyl-3,4,5,6-tetrahydro-2H-[1,2′]bipyridinyl-3′-ylmethyl]-propionamide] | 456 | 5 | 
5 | CC(C)COc1nc(C(C)(C)C)ccc1CNC(=O)C(C)c1ccc(NS(C)(=O)=O)c(F)c1 (stereo not shown) [Example 353, N-(6-tert-butyl-2-isobutoxy-pyridin-3-ylmethyl)-2-(3-fluoro-4-methylsulfonamido-phenyl)-propionamide] |  | 0.6 | inhibition at 0.1 µM (VR1/TRPV1 receptor; [5]): 28%; inhibition at 1 µM (VR1/TRPV1 receptor; [5]): 25%
6 | CC(C(=O)NCc1ccc(C(F)(F)F)nc1/C=C/C1CCCCC1)c1ccc(NS(C)(=O)=O)c(F)c1 (stereo not shown) [Example 346, N-[2-(2-cyclohexyl-vinyl)-6-trifluoromethyl-pyridin-3-ylmethyl]-2-(3-fluoro-4-methylsulfonamido-phenyl)-propionamide] | 66 | 0.7 | 
7 | C/C=C\COc1nc(C(F)(F)F)ccc1CNC(=O)C(C)c1ccc(NS(C)(=O)=O)c(F)c1 (stereo not shown) [Example 298, N-(2-but-2-enyloxy-6-trifluoromethyl-pyridin-3-ylmethyl)-2-(3-fluoro-4-methylsulfonamido-phenyl)-propionamide] | 183 | 1.6 | 
8 | CC1CC(C)CN(c2nc(C(F)(F)Cl)ccc2CNC(=O)C(C)c2ccc(NS(C)(=O)=O)c(F)c2)C1 (stereo not shown) [Example 187, N-[6′-(chloro-difluoro-methyl)-3,5-dimethyl-3,4,5,6-tetrahydro-2H-[1,2′]bipyridinyl-3′-ylmethyl]-2-(3-fluoro-4-methylsulfonamido-phenyl)-propionamide] | 39.6 |  | Ki [1, 3]: 0.5 nM
9 | CC(C(=O)NCc1ccc(C(F)(F)F)cc1-c1cccc(F)c1)c1ccc(NS(C)(=O)=O)c(F)c1 (stereo not shown) [Example 323, 2-(3-fluoro-4-methylsulfonamido-phenyl)-N-(3′-fluoro-5-trifluoromethyl-biphenyl-2-ylmethyl)-propionamide] |  | 1.9 | inhibition at 0.1 µM (VR1/TRPV1 receptor; [5]): 15%; inhibition at 1 µM (VR1/TRPV1 receptor; [5]): 41%
10 | CC(C(=O)NCc1ccc(C(F)(F)F)nc1OC1CCC(C(F)(F)F)CC1)c1ccc(NS(C)(=O)=O)c(F)c1 (stereo not shown) [Example 339, 2-(3-fluoro-4-methylsulfonamido-phenyl)-N-[6-trifluoromethyl-2-(4-trifluoromethyl-cyclohexyloxy)-pyridin-3-ylmethyl]-propionamide] | 14 | 0.3 | 
11 | CC(=O)C1(c2ccccc2)CCN(c2nc(C(F)(F)F)ccc2CNC(=O)C(C)c2ccc(NS(C)(=O)=O)c(F)c2)CC1 (stereo not shown) [Example 304, N-(4-acetyl-4-phenyl-6′-trifluoromethyl-3,4,5,6-tetrahydro-2H-[1,2′]bipyridinyl-3′-ylmethyl)-2-(3-fluoro-4-methylsulfonamido-phenyl)-propionamide] | 35.4 | 0.71 | 
12 | CC(C(=O)NCc1ccc(C(F)(F)F)nc1C1=CCCCC1)c1ccc(NS(C)(=O)=O)c(F)c1 (stereo not shown) [Example 334, N-(2-cyclohex-1-enyl-6-trifluoromethyl-pyridin-3-ylmethyl)-2-(3-fluoro-4-methylsulfonamido-phenyl)-propionamide] | 99 | 0.7 | 
13 | COc1cc(COc2nc(C(F)(F)F)ccc2CNC(=O)C(C)c2ccc(NS(C)(=O)=O)c(F)c2)cc(OC)c1 (stereo not shown) [Example 363, N-[2-(3,5-dimethoxy-benzyloxy)-6-trifluoromethyl-pyridin-3-ylmethyl]-2-(3-fluoro-4-methylsulfonamido-phenyl)-propionamide] | 76 | 0.7 | 
14 | Cc1cc(C(F)(F)F)nc(N2CCC(Cc3ccccc3)CC2)c1CNC(=O)C(C)c1ccc(NS(C)(=O)=O)c(F)c1 (stereo not shown) [Example 356, N-(4-benzyl-4′-methyl-6′-trifluoromethyl-3,4,5,6-tetrahydro-2H-[1,2′]bipyridinyl-3′-ylmethyl)-2-(3-fluoro-4-methylsulfonamido-phenyl)-propionamide] |  | 9.2 | inhibition in percent, IC50 (human) after pH stimulus (VR1/TRPV1 receptor): ne @ 1 μM
15 | CC(C(=O)NCc1ccc(C(F)(F)F)nc1OCC1CCN(C(=O)OC(C)(C)C)CC1)c1ccc(NS(C)(=O)=O)c(F)c1 (stereo not shown) [Example 327, 4-(3-{[2-(3-fluoro-4-methylsulfonamido-phenyl)-propionylamino]-methyl}-6-trifluoromethyl-pyridin-2-yloxymethyl)-piperidine-1-carbonic acid tert-butyl ester] | 342 | 3.4 | 
16 | CCCOc1nc(C(C)(C)C)ccc1CNC(=O)C(C)c1ccc(NS(C)(=O)=O)c(F)c1 (stereo not shown) [Example 369, N-((6-tert-butyl-2-propoxypyridin-3-yl)methyl)-2-(3-fluoro-4-(methylsulfonamido)phenyl)propanamide] | 182 | 1.7 | 
17 | CC(C(=O)NCc1ccc(C(F)(F)F)cc1-c1ccc(C(C)(C)C)cc1)c1ccc(NS(C)(=O)=O)c(F)c1 (stereo not shown) [Example 320, N-(4′-tert-butyl-5-trifluoromethyl-biphenyl-2-ylmethyl)-2-(3-fluoro-4-methylsulfonamido-phenyl)-propionamide] | 36 | 1.1 | 
18 | CCC(CC)Oc1nc(C(F)(F)F)ccc1CNC(=O)C(C)c1ccc(NS(C)(=O)=O)c(F)c1 (stereo not shown) [Example 335, N-[2-(1-ethyl-propoxy)-6-trifluoromethyl-pyridin-3-ylmethyl]-2-(3-fluoro-4-methylsulfonamido-phenyl)-propionamide] |  | 1.1 | inhibition in percent, IC50 (human) after pH stimulus (VR1/TRPV1 receptor): ne @ 1 μM
19 | CC(C(=O)NCc1ccc(C(F)(F)F)nc1N1CC=C(c2ccc(F)cc2)CC1)c1ccc(NS(C)(=O)=O)c(F)c1 (stereo not shown) [Example 332, 2-(3-fluoro-4-methylsulfonamido-phenyl)-N-[4-(4-fluoro-phenyl)-6′-trifluoromethyl-3,6-dihydro-2H-[1,2′]bipyridinyl-3′-ylmethyl]-propionamide] | 159 | 2.4 | 
20 | CCCN(CCC)c1nc(C(F)(F)F)ccc1CNC(=O)C(C)c1ccc(NS(C)(=O)=O)c(C)c1 (stereo not shown) [Example 331, N-(2-dipropylamino-6-trifluoromethyl-pyridin-3-ylmethyl)-2-(4-methylsulfonamido-3-methyl-phenyl)-propionamide] |  | 0.7 | inhibition at 10 µM (VR1/TRPV1 receptor; @ 10 μM, read-out: inhibition in percent, IC50 (human) after pH stimulus): 31%

Source: patent publication US8710233B2 (Gruenenthal GmbH, priority 2005, dated 2014)
